Assay results from patent publication US6444816B1, “Fused 7-oxo-pyrimidinyl compounds, preparation, composition and use thereof” (Dr. Reddy's Research Foundation, priority 1997, dated 2002).

Experiments:
[1] = biological target: T1, hPPARγ1 (Homo sapiens, UniProt P37231); assay: Determination of hPPARγ activity (GAL4 luciferase reporter transactivation in HEK-293 cells); type: cell-based; conditions: compound at 1 μM, HEK-293 cells transfected with GAL4-hPPARγ1 LBD
T1 construct: expressed in transfected cells; host or cells: HEK-293
T1 sequence (P37231 238-503 limits assumed): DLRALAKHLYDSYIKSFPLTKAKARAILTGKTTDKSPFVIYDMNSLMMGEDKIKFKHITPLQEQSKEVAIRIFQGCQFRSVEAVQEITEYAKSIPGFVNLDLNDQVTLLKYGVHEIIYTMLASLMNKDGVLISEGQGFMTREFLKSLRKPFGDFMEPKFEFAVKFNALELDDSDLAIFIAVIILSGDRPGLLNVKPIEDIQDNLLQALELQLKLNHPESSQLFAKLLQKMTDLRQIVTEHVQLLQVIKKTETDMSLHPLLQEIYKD
Experimental: Ligand binding domain of hPPARγ1 was fused to DNA binding domain of Yeast transcription factor GAL4 in eucaryotic expression vector. Using lipofectamine (Gibco BRL, USA) as transfecting reagent HEK-293 cells were transfected with this plasmid and a reporter plasmid harboring the luciferase gene driven by a GAL4 specific promoter. Compound was added at 1 μM concentration after 48 hrs of transfection and incubated overnight. Luciferase activity as a function of drug binding/activation capacity of PPARγ1 was measured using Packard Luclite kit (Packard, USA) in Packard Top Count (Ivan Sadowski, Brendan Bell, Peter Broag and Melvyn Hollis. Gene. 1992. 118: 137-141; Guide to Eukaryotic Transfections with Cationic Lipid Reagents. Life Technologies, GIBCO BRL, USA).

[2] = test system: Swiss albino mice; assay: Triglyceride lowering activity in Swiss albino mice; type: in vivo; conditions: 3 mg/kg/day oral for 6 days
Experimental: Male Swiss albino mice (SAM) were obtained from NIN and housed in DRF animal house. All these animals were maintained under 12 hour light and dark cycle at 25±1° C. Animals were given standard laboratory chow SIN, Hyderabad, India) and water, ad libitun. SAM of 20-25 g body weight range and Guinea pigs of 500-700 g body weight range were used (Oliver, P., Plancke, M. O., Marzin, D., Clavey, V., Sauzieres, J and Fruchart, J. C. Effects of fenofibrate, gemfibrozil and nicotinic acid on plasma lipoprotein levels in normal and hyperlipidemic mice. Atherosclerosis. 1988. 70:107-114).
The test compounds were administered orally to Swiss albino mice at 0.3 to 30 mg/kg/day dose for 6 days. Control mice were treated with vehicle (0.25% Carboxymethylcellulose; dose 10 ml/kg). The test compounds were administered orally to Guinea pigs at 0.3 to 30 mg/kg/day dose for 6 days. Control animals were treated with vehicle (0.25% Carboxymethylcellulose; dose 5 ml/kg).
The blood samples were collected in fed state 1 hour after drug administration on 0 and 6 day of treatment. The blood was collected from the retro-orbital sinus through heparinised capillary in EDTA containing tubes. After centrifugation, plasma sample was separated for triglyceride and total cholesterol (Wieland, O. Methods of Enzymatic analysis. Bergermeyer, H. O., Ed., 1963. 211-214; Trinder, P. Ann. Clin. Biochem. 1969. 6: 24-27). Measurement of plasma triglyceride, total cholesterol and HDL were done using commercial kits (Dr. Reddy's Diagnostic Division, Hyderabad, India).
(§1) 1. Percent reduction in Blood sugar/triglycerides/total cholesterol were calculated according to the formula: [formula]

[3] = biological target: T2, hPPARα (Homo sapiens, UniProt Q07869); assay: Determination of hPPARα activity (GAL4 luciferase reporter transactivation in HEK-293 cells); type: cell-based; conditions: compound at 50 μM, HEK-293 cells transfected with GAL4-hPPARα LBD
T2 construct: expressed in transfected cells; host or cells: HEK-293
T2 sequence (Q07869 239-466 limits assumed): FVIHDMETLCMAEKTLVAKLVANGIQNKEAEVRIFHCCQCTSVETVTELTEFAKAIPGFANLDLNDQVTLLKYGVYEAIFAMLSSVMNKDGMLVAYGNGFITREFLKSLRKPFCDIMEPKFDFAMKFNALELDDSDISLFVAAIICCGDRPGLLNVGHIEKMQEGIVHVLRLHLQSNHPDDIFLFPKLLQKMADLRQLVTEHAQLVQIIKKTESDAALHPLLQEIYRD
Experimental: Ligand binding domain of hPPARα was fused to DNA binding domain of Yeast transcription factor GAL4 in eucaryotic expression vector. Using superfect (Qiagen, Germany) as transfecting reagent HEK-293 cells were transfected with this plasmid and a reporter plasmid harboring the luciferase gene driven by a GAL4 specific promoter. Compound was added at different concentrations after 42 hrs of transfection and incubated overnight. Luciferase activity as a function of compound binding/activation capacity of PPARα was measured using Packard Luclite kit (Packard, USA) in Top Count (Ivan Sadowski, Brendan Bell, Peter Broag and Melvyn Hollis. Gene. 1992. 118: 137-141; Superfect Transfection Reagent Handbook. February 1997. Qiagen, Germany).

[4] = test system: C57BL/KsJ-db/db mice; assay: Blood glucose and triglyceride lowering activity in db/db mice; type: in vivo; conditions: 3 mg/kg oral gavage daily for 6 days, plasma 1 h after dose on day 6
Source text: Mutation in colonies of laboratory animals and different sensitivities to dietary regimens have made the development of animal models with non-insulin dependent diabetes and hyperlipidemia associated with obesity and insulin resistance possible. Genetic models such as db/db and ob/ob (Diabetes, (1982) 31(1): 1-6) mice and zucker fa/fa rats have been developed by the various laboratories for understanding the pathophysiology of disease and testing the efficacy of new antidiabetic compounds (Diabetes, (1983) 32: 830-838; Annu. Rep. Sankyo Res. Lab. (1994). 46: 1-57). The homozygous animals, C57 BL/KsJ-db/db mice developed by Jackson Laboratory, US, are obese, hyperglycemic, hyperinsulinemic and insulin resistant (J. Clin. Invest., (1990) 85: 962-967), whereas heterozygous are lean and normoglycemic. In db/db model, mouse progressively develops insulinopenia with age, a feature commonly observed in late stages of human type II diabetes when blood sugar levels are insufficiently controlled. The state of pancreas and its course vary according to the models. Since this model resembles that of type II diabetes mellitus, the compounds of the present invention were tested for blood sugar and triglycerides lowering activities.
Male C57BL/KsJ-db/db mice of 8 to 14 weeks age, having body weight range of 35 to 60 grams, bred at Dr. Reddy's Research Foundation (DRF) animal house, were used in the experiment. The mice were provided with standard feed (National Institute of Nutrition (NIN), Hyderabad, India) and acidified water, ad libitum. The animals having more than 350 mg/dl blood sugar were used for testing. The number of animals in each group was 4.
Test compounds were suspended on 0.25% carboxymethyl cellulose and administered to test group at a dose of 0.001 mg to 30 mg/kg through oral gavage daily for 6 days. The control group received vehicle (dose 10 ml/kg). On 6th day the blood samples were collected one hour after administration of test compounds/vehicle for assessing the biological activity.
The random blood sugar and triglyceride levels were measured by collecting blood (100 μl) through orbital sinus, using heparinised capillary in tubes containing EDTA which was centrifuged to obtain plasma. The plasma glucose and triglyceride levels were measured spectrometrically, by glucose oxidase and glycerol-3-PO4 oxidase/peroxidase enzyme (Dr. Reddy's Lab. Diagnostic Division Kits, Hyderabad, India) methods respectively.
The blood sugar and triglycerides lowering activities of the test compound was calculated according to the formula given below.
as §1

[5] = test system: hypercholesterolemic male Sprague Dawley rats; assay: Cholesterol lowering activity in hypercholesterolemic male Sprague Dawley rats; type: in vivo; conditions: 3 mg/kg/day oral for 3 days
Experimental: Male Sprague Dawley rats (NIN stock) were bred in DRF animal house. Animals were maintained under 12 hour light and dark cycle at 25±1° C. Rats of 180-200 gram body weight range were used for the experiment. Animals were made hypercholesterolemic by feeding 2% cholesterol and 1% sodium cholate mixed with standard laboratory chow [National Institute of Nutrition (NMN), Hyderabad, India] for 6 days. Throughout the experimental period the animals were maintained on the same diet (Petit, D., Bonnefis, M. T., Rey, C and Infante, R. Effects of ciprofibrate on liver lipids and lipoprotein synthesis in normo- and hyperlipidemic rats. Atherosclerosis. 1988. 74: 215-225).
The test compounds were administered orally at a dose 0.1 to 30 mg/kg/day for 3 days. Control group was treated with vehicle alone (0.25% Carboxymethylcellulose; dose 10 ml/kg).
The blood samples were collected in fed state 1 hour after drug administration on 0 and 3 day of compound treatment. The blood was collected from the retro-orbital sinus through heparinised capillary in EDTA containing tubes. After centrifugation, plasma sample was separated for total cholesterol, HDL and triglyceride estimations. Measurement of plasma triglyceride, total cholesterol and HDL were done using commercial kits (Dr. Reddy's Laboratory, Diagnostic Division, India). LDL and VLDL cholesterol were calculated from the data obtained for total cholesterol, HDL and triglyceride. The reduction of various parameters examined are calculated according to the formula given below.
as §1
2. LDL and VLDL cholesterol levels were calculated according to the formula: [formula]
VLDL cholesterol in mg/dl=[Total cholesterol−HDL cholesterol−LDL cholesterol] mg/dl.

Row | PPARγ activity [1] | PPARα activity [3] | Compound | Triglyceride (%)↓ [2] | Reduction in Blood Glucose Level (%) [4] | Triglyceride Lowering (%) [4] | also measured
1 | 11.0 | 5.00 | CCCc1nn(C)c2c(=O)n(CCOc3ccc(CC(OCC)C(=O)OCC)cc3)c(CC)nc12 (stereo not shown) [Example 1] | 45% | – | – | –
2 | 14.6 | 8.32 | CCCc1nn(C)c2c(=O)n(CCOc3ccc(CC(OCC)C(=O)O)cc3)c(C)nc12 (stereo not shown) [Example 4, 3-[4-[2-(1,5-Dimethyl-7-oxo-3-propyl-6,7-dihydro-1H-pyrazolo[4,3-d]pyrimidin-6-yl)ethoxy]phenyl]-2-ethoxypropanoic Acid] | 66% | 42% | 17% | –
3 | – | – | CCCc1nn(C)c2c(=O)n(CCOc3ccc(CC(Oc4ccccc4)C(=O)O)cc3)c(CC)nc12 (stereo not shown) [Example 10, 3-[4-[2-(5-Ethyl-1-methyl-7-oxo-3-propyl-6,7-dihydro-1H-pyrazolo[4,3-d]pyrimidin-6-yl)ethoxy]phenyl]-2-phenoxypropanoic Acid] | – | 33% | 35% | –
4 | – | – | CCCc1nn(C)c2c(=O)n(CCOc3ccc(CC(OCC)C(=O)OCC)cc3)c(CCC)nc12 (stereo not shown) [Example 13, Ethyl 3-[4-[2-(3,5-Dipropyl-1-methyl-7-oxo-6,7-dihydro-1H-pyrazolo[4,3-d]pyrimidin-6-yl)ethoxy]phenyl]-2-ethoxypropanoate] | 25% | – | – | –
5 | – | – | CCCc1nn(C)c2c(=O)n(CCOc3ccc(CC(OCC)C(=O)O)cc3)c(CC)nc12 (stereo not shown) [Example 2] | – | – | – | HDL ↓ [5]: 164; Total Cholesterol (%)↓ [5]: 60%; Triglyceride (%)↓ [5]: 70%; LDL (%)↓ ([5]; LDL calculated from total cholesterol, HDL and triglyceride): 72%; VLDL (%)↓ ([5]; VLDL calculated from total cholesterol, HDL and LDL): 71%
6 | 19.0 | 6.9 | CCCc1nn(C)c2c(=O)n(CCOc3ccc(CC(OCC)C(=O)OCC)cc3)c(C)nc12 (stereo not shown) [Example 3, Ethyl 3-[4-[2-(1,5-Dimethyl-7-oxo-3-propyl-6,7-dihydro-1H-pyrazolo[4,3-d]pyrimidin-6-yl)ethoxy]phenyl]-2-ethoxypropanoate] | 61% | 58% | 23% | –
7 | – | – | CCCc1nn(C)c2c(=O)n(CCOc3ccc(C[C@@H](OCC)C(=O)N[C@H](CO)c4ccccc4)cc3)c(CC)nc12 [Example 18A, [2R, N(1S)]-2-Ethoxy-3-[4-[2-(5-ethyl-1-methyl-7-oxo-3-propyl-6,7-dihydro-1H-pyrazolo[4,3-d]pyrimidin-6-y]ethoxy]phenyl]-N-(2-hydroxy-1-phenylethyl) Propanamide] | – | – | – | melting point: 138 to 139 °C
